Data: patent US10766869B2, “Triazoles for the treatment of demyelinating dieases” (Vertex Pharmaceuticals Incorporated, priority 2015, dated 2020)

Tested on: primary rat mixed cortical cells
Experiment: In vitro myelination assay (MBP positive myelin strands, fold myelin pixels above background)
Assay type: cell-based
Settings: relative to baseline of no added compound; for fold induction at 1 µM / fold induction at 10 µM: Rattus norvegicus; for fold induction at 1 µM: read-out: Fold myelin pixels above background, 1.0 μM; for fold induction at 10 µM: read-out: Fold myelin pixels above background, 10.0 μM
Method in brief: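 Compounds at 1.0 and 10.0 μM were incubated 14 days with dissociated P1 rat cortical cells, which were then fixed and immunostained for MBP. Myelination was scored as fold MBP myelin pixels per well over the no-compound baseline.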

Row | SMILES | fold induction at 1 µM (1.0 μM compound) | fold induction at 10 µM (10.0 μM compound) | Fold myelin pixels above background, 1.0 μM (1.0 μM compound) | Fold myelin pixels above background, 10.0 μM (10.0 μM compound)
1 | CCOC(=O)N1CCN(c2cc(C)cc(Nc3ncn(-c4cc(F)cc(F)c4)n3)c2)CC1 [Compound 196, ethyl 4-[3-[[1-(3,5-difluorophenyl)-1,2,4-triazol-3-yl]amino]-5-methyl-phenyl]piperazine-1-carboxylate] | ≤ 1 | ≤ 1 | – | –
2 | Cc1cc(Nc2ncn(-c3cc(F)cc(F)c3)n2)cc(N(C)C2COC2)c1 [Compound 197, N3-[1-(3,5-difluorophenyl)-1,2,4-triazol-3-yl]-N1,5-dimethyl-N1-(oxetan-3-yl)benzene-1,3-diamine] | 100 to 1000 | 100 to 1000 | – | –
3 | CCc1cc(Nc2ncn(-c3ccc(F)c(F)c3)n2)cc(N2CC(N3CCOCC3)C2)c1 [Compound 198, 1-(3,4-difluorophenyl)-N-[3-ethyl-5-(3-morpholinoazetidin-1-yl)phenyl]-1,2,4-triazol-3-amine] | 100 to 1000 | 10 to 100 | – | –
4 | Cc1cc(Nc2ncn(-c3cc(F)cc(F)c3)n2)cc(N2CCN(C3CCCOC3)CC2)c1 (centres unmarked) [Compound 199, 1-(3,5-difluorophenyl)-N-[3-methyl-5-(4-tetrahydropyran-3-ylpiperazin-1-yl)phenyl]-1,2,4-triazol-3-amine] | 100 to 1000 | 100 to 1000 | – | –
5 | Cc1cc(Nc2ncn(-c3cc(F)cc(F)c3)n2)cc(N2CCN3C(=O)OCC3C2)c1 (centres unmarked) [Compound 200, 7-[3-[[1-(3,5-difluorophenyl)-1,2,4-triazol-3-yl]amino]-5-methyl-phenyl]-5,6,8,8a-tetrahydro-1H-oxazolo[3,4-a]pyrazin-3-one] | 100 to 1000 | 100 to 1000 | – | –
6 | Cc1cc(Nc2ncn(-c3ccc(F)cc3)n2)cc(OC2CCN(C3COC3)CC2)c1 [Compound 201, 1-(4-fluorophenyl)-N-[3-methyl-5-[[1-(oxetan-3-yl)-4-piperidyl]oxy]phenyl]-1,2,4-triazol-3-amine] | 1000 to 10000 | ≤ 1 | – | –
7 | CC1CCN(c2cc(Nc3ncn(-c4ccc(F)c(F)c4)n3)cc(C3CC3)n2)CC1 [Compound 202, 2-cyclopropyl-N-[1-(3,4-difluorophenyl)-1,2,4-triazol-3-yl]-6-(4-methyl-1-piperidyl)pyridin-4-amine] | 100 to 1000 | 10 to 100 | – | –
8 | CN1CCN(c2cc(F)cc(Nc3ncn(-c4cccc(F)c4)n3)c2)CC1 [Compound 203, N-[3-fluoro-5-(4-methylpiperazin-1-yl)phenyl]-1-(3-fluorophenyl)-1,2,4-triazol-3-amine] | 100 to 1000 | ≤ 1 | – | –
9 | CCOc1nccc(-n2cnc(Nc3cc(C)cc(N4CCN(C5COC5)CC4)c3)n2)n1 [Compound 204, 1-(2-ethoxypyrimidin-4-yl)-N-[3-methyl-5-[4-(oxetan-3-yl)piperazin-1-yl]phenyl]-1,2,4-triazol-3-amine] | ≤ 1 | ≤ 1 | – | –
10 | Cc1cc(Nc2ncn(-c3cc(F)cc(OC(C)C)c3)n2)cc(N2CCN(C)CC2)c1 [Compound 205, 1-(3-fluoro-5-isopropoxy-phenyl)-N-[3-methyl-5-(4-methylpiperazin-1-yl)phenyl]-1,2,4-triazol-3-amine] | 100 to 1000 | ≤ 1 | – | –
11 | CCc1cc(F)cc(-n2cnc(Nc3cc(C)cc(N4CCN(C5COC5)CC4)c3)n2)c1 [Compound 206, 1-(3-ethyl-5-fluoro-phenyl)-N-[3-methyl-5-[4-(oxetan-3-yl)piperazin-1-yl]phenyl]-1,2,4-triazol-3-amine] | 100 to 1000 | 100 to 1000 | – | –
12 | Cc1cc(Nc2ncn(-c3ccccn3)n2)cc(C2CCCN(C3COC3)C2)c1 (centres unmarked) [Compound 207, N-[3-methyl-5-[1-(oxetan-3-yl)-3-piperidyl]phenyl]-1-(2-pyridyl)-1,2,4-triazol-3-amine] | 10 to 100 | ≤ 1 | – | –
13 | Cc1cc(Nc2ncn(-c3cc(F)cc(F)c3)n2)cc([C@@H]2CCN(C3COC3)C[C@@H]2F)c1.Cc1cc(Nc2ncn(-c3cc(F)cc(F)c3)n2)cc([C@H]2CCN(C3COC3)C[C@H]2F)c1 [Compound 208, 1-(3,5-difluorophenyl)-N-[3-[(3S,4R)-3-fluoro-1-(oxetan-3-yl)-4-piperidyl]-5-methyl-phenyl]-1,2,4-triazol-3-amine; 1-(3,5-difluorophenyl)-N-[3-[(3R,4S)-3-fluoro-1-(oxetan-3-yl)-4-piperidyl]-5-methyl-phenyl]-1,2,4-triazol-3-amine] | – | – | +++ (>100 to 1000x) | − (≤1)
14 | FC(F)c1cc(Nc2ncn(-c3cccnc3)n2)cc(N2CCN(C3COC3)CC2)c1 [Compound 209, N-[3-(difluoromethyl)-5-[4-(oxetan-3-yl)piperazin-1-yl]phenyl]-1-(3-pyridyl)-1,2,4-triazol-3-amine] | 100 to 1000 | 100 to 1000 | – | –
15 | COc1cc(OC)cc(-n2cnc(Nc3cc(C4CC4)nc(N4CCOCC4)c3)n2)c1 [Compound 210, 2-cyclopropyl-N-[1-(3,5-dimethoxyphenyl)-1,2,4-triazol-3-yl]-6-morpholino-pyridin-4-amine] | ≤ 1 | 100 to 1000 | – | –
16 | COCC1CCN(c2cc(C)cc(Nc3ncn(-c4ccccn4)n3)c2)CC1 [Compound 211, N-[3-[4-(methoxymethyl)-1-piperidyl]-5-methyl-phenyl]-1-(2-pyridyl)-1,2,4-triazol-3-amine] | 10 to 100 | 100 to 1000 | – | –
17 | Cc1cc(Nc2ncn(-c3ccccc3C#N)n2)cc(N2CCCC2)c1 [Compound 212, 2-[3-(3-methyl-5-pyrrolidin-1-yl-anilino)-1,2,4-triazol-1-yl]benzonitrile] | ≤ 1 | ≤ 1 | – | –
18 | CN1CCN(c2cc(F)cc(Nc3ncn(-c4ccccc4)n3)c2)CC1 [Compound 213, N-[3-fluoro-5-(4-methylpiperazin-1-yl)phenyl]-1-phenyl-1,2,4-triazol-3-amine] | 100 to 1000 | ≤ 1 | – | –
19 | Cc1cc(Nc2ncn(-c3ccccc3)n2)cc(N2CCN(C3CC3)C(=O)C2)c1 [Compound 214, l-cyclopropyl-4-[3-methyl-5-[(1-phenyl-1,2,4-triazol-3-yl)amino]phenyl]piperazin-2-one] | 10 to 100 | 1000 to 10000 | – | –
20 | Cc1cc(Nc2ncn(-c3cc(F)cc(F)c3)n2)cc(N2CCC(C3COC3)CC2)c1 [Compound 216, 1-(3,5-difluorophenyl)-N-[3-methyl-5-[4-(oxetan-3-yl)-1-piperidyl]phenyl]-1,2,4-triazol-3-amine] | 1 to 10 | 10 to 100 | – | –
21 | Cc1cc(Nc2ncn(-c3cncc(Cl)c3)n2)cc(N2CCN(C3COC3)CC2)c1 [Compound 217, 1-(5-chloro-3-pyridyl)-N-[3-methyl-5-[4-(oxetan-3-yl)piperazin-1-yl]phenyl]-1,2,4-triazol-3-amine] | 10 to 100 | 10 to 100 | – | –
22 | CCc1cc(Nc2ncn(-c3cccc(C(F)(F)F)c3)n2)cc(N2CCN(C3COC3)CC2)c1 [Compound 218, N-[3-ethyl-5-[4-(oxetan-3-yl)piperazin-1-yl]phenyl]-1-[3-(trifluoromethyl)phenyl]-1,2,4-triazol-3-amine] | 100 to 1000 | ≤ 1 | – | –
